The results in this text go back to patent US9321752B2, “Pyrazole derivative” (GREEN TECH CO., LTD., priority 2012, dated 2016).

A short description of data set [1]: Concentration measurement in brain after oral administration. The conditions noted are these: ICR mice (male, 7 weeks old), single dose of 5 mg/kg, whole brain, LC/MS/MS. It counts as in vivo. As to the method:
Each of the compounds of the present invention shown in Tables 40 and 41 and the compound of Example 2 of JP 2012-229208 A was orally administered to ICR mice (male, 7 weeks old) in a single dose of 5 mg/kg. At 3, 6 and 9 hours after the administration, 1, 3, 6 and 9 hours after the administration, or 1, 3, 6, 9 and 24 hours after the administration, the mice were subjected to perfusion by infusing physiological saline into the heart under inhalational anesthesia with isoflurane, and the whole brain was harvested. Physiological saline was added to the harvested brain in an amount equal to twice the wet weight of the brain and the brain was homogenized. Then, an equal volume of methanol was added thereto, and the mixture was deproteinized. The concentration of each compound in the sample was measured by LC/MS/MS.

Data set [2] addresses Recombinant three-repeat microtubule-binding domain (3R-MBD) of tau protein (Homo sapiens, UniProt P10636). The data set can be described thus: Determination of tau aggregation inhibitory activity (thioflavin T fluorescence, heparin-induced). It counts as biochemical. The conditions noted are these: for IC50: 10 μM tau 3R-MBD, 10 μM heparin, 37° C. for 16 hours, thioflavin T; for Emax: 16 h, maximum inhibition at the concentrations used (0.1, 0.3, 1, 3, and 10 μM). The procedure:
Recombinant three-repeat microtubule-binding domain (3R-MBD) of tau protein was expressed in E. coli and was purified and used for the experiment. The purified tau solution was diluted with a 50 mM Tris-HCl buffer (pH 7.6) to a final concentration of 10 μM. The test compounds were prepared using dimethylsulfoxide (hereinafter also referred to as DMSO) at 20-fold of their final concentrations and added to the tau solution so that the DMSO concentration would be 5%. To this solution, heparin was added so that the final concentration would be 10 μM and the plate was left to stand at 37° C. for 16 hours. Thioflavin T was added to the plate so that the concentration would be 10 μM and the fluorescence intensity was measured with a fluorescence plate reader (PerkinElmer, Inc.)(excitation wavelength: 440 nm; fluorescence wavelength: 486 nm). The final concentration of each compound at the time of measurement was set at 0.1, 0.3, 1, 3, and 10 μM. The sample to which only DMSO was added was used as a negative control and its fluorescence intensity was taken as 0% inhibitory activity to determine the 50% inhibitory concentration (IC50) of each compound.

The structures appear in SMILES notation.

Recombinant three-repeat microtubule-binding domain (3R-MBD) of tau protein, sequence (P10636 2-758 limits assumed): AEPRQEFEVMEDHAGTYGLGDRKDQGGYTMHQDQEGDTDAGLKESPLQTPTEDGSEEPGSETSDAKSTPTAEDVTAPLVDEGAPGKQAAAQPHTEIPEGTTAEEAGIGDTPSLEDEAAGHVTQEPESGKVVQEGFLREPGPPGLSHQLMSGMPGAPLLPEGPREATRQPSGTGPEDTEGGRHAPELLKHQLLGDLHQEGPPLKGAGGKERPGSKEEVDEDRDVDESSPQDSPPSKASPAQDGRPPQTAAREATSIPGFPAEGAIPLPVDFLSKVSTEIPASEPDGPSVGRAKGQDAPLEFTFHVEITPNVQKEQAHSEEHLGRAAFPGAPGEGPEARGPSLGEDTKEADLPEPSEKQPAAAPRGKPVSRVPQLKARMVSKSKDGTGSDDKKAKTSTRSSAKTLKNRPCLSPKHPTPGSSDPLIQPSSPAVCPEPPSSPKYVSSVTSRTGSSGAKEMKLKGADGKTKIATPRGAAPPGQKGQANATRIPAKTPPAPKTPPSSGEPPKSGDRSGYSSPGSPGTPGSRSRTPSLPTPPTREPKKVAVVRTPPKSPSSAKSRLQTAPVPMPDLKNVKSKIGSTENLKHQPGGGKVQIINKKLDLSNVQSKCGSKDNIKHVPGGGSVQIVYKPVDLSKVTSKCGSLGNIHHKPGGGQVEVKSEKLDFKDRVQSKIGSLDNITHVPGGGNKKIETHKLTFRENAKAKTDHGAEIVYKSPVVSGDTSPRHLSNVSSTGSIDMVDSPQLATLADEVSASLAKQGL

As to `COc1cc(OCCN2CCOCC2)ccc1/C=C/c1cc(/C=C/c2ccc3ccn(C)c3c2)[nH]n1` [Example 14-2, 4-[2-[3-methoxy-4-[(E)-2-[5-[(E)-2-(1-methylindol-6-yl)vinyl]-1H-pyrazol-3-yl]vinyl]phenoxy]ethyl]morpholine], the “AUC0-24 h in brain” value in data set [1] stood at 24639 ng · hr/g-tissue.

`Cn1ccc2ccc(/C=C/c3cc(/C=C/c4ccc(OCc5ccccn5)cc4F)n[nH]3)cc21` [Example 16-2, 6-[(E)-2-[3-[(E)-2-[2-fluoro-4-(2-pyridylmethoxy)phenyl]vinyl]-1H-pyrazol-5-yl]vinyl]-1-methyl indole]: the IC50 in data set [2] came out at 600 nM.

`Cn1ccc2ccc(/C=C/c3cc(/C=C/c4ccc(OCc5ccccn5)cc4)n[nH]3)cc21` [Example 17-2, 1-methyl-6-[(E)-2-[3-[(E)-2-[4-(2-pyridylmethoxy)phenyl]vinyl]-1H-pyrazol-5-yl]vinyl]indole]: the IC50 in data set [2] is 650 nM.

With `CN1CCN(c2ccc(/C=C/c3cc(/C=C/c4ccc5ccn(C)c5c4)[nH]n3)cc2)CC1` [Example 18-2, 1-methyl-6-[(E)-2-[3-[(E)-2-[4-(4-methylpiperazin-1-yl)phenyl]vinyl]-1H-pyrazol-5-yl]vinyl]indole], the “AUC0-24 h in brain” value in data set [1] is recorded as 9781 ng · hr/g-tissue.

As for `Cn1cccc1/C=C/c1cc(/C=C/c2ccc(OCc3ccccn3)cc2F)n[nH]1` [Example 19-4, 2-[[3-fluoro-4-[(E)-2-[5-[(E)-2-(1-methylpyrrol-2-yl)vinyl]-1H-pyrazol-3-yl]vinyl]phenoxy]methyl]pyridine], the “AUC0-24 h in brain” value in data set [1] was found to be 3499 ng · hr/g-tissue. Further, the IC50 in data set [2] came out at 510 nM.

As for `Cn1cccc1/C=C/c1cc(/C=C/c2ccc(OCc3ccccn3)cc2)n[nH]1` [Example 20-3, 2-[[4-[(E)-2-[5-[(E)-2-(1-methylpyrrol-2-yl)vinyl]-1H-pyrazol-3-yl]vinyl]phenoxy]methyl]pyridine], the “AUC0-24 h in brain” value in data set [1] stood at 5306 ng · hr/g-tissue. In data set [2], the IC50 turned out to be 550 nM and the Emax was 89%.

For the molecule `COc1cc(OCCN2CCOCC2)ccc1/C=C/c1cc(/C=C/c2cccn2C)[nH]n1` [Example 21-2, 4-[2-[3-methoxy-4-[(E)-2-[5-[(E)-2-(1-methylpyrrol-2-yl)vinyl]-1H-pyrazol-3-yl]vinyl]phenoxy]ethyl]morpholine], the Emax in data set [2] is 89%.

Turning to `COc1cc(OCc2ccccn2)ccc1/C=C/c1cc(/C=C/c2cccn2C)[nH]n1` [Example 22-2, 2-[[3-methoxy-4-[(E)-2-[5-[(E)-2-(1-methylpyrrol-2-yl)vinyl]-1H-pyrazol-3-yl]vinyl]phenoxy]methyl]pyridine], the “AUC0-9 h in brain” value in data set [1] turned out to be 458 ng · hr/g-tissue. In data set [2], the IC50 is 660 nM and the maximal response (Emax) was determined as 90%.

With `COc1cc(OCc2ccccn2)ccc1/C=C/c1cc(/C=C/c2ccc(C)n2C)[nH]n1` [Example 23-2, 2-[[4-[(E)-2-[5-[(E)-2-(1,5-dimethylpyrrol-2-yl)vinyl]-1H-pyrazol-3-yl]vinyl]-3-methoxyphenoxy]methyl]pyridine], in data set [2], the IC50 worked out at 590 nM and the Emax was found to be 92%.

For the molecule `COc1cc(OCc2ccccn2)ccc1/C=C/c1cc(/C=C/c2cccc(C)n2)[nH]n1` [Example 25-2, 2-[(E)-2-[3-[(E)-2-[2-methoxy-4-(2-pyridylmethoxy)phenyl]vinyl]-1H-pyrazol-5-yl]vinyl]-6-methylpyridine], the IC50 in data set [2] was 840 nM.

As for `CN1CCN(c2ccc(/C=C/c3cc(/C=C/c4cccn4C)[nH]n3)cc2)CC1` [Example 27-3, 1-methyl-4-[4-[(E)-2-[5-[(E)-2-(1-methylpyrrol-2-yl)vinyl]-1H-pyrazol-3-yl]vinyl]phenyl]piperazine], the “AUC0-24 h in brain” value in data set [1] is 1302 ng · hr/g-tissue. Further, the maximal response (Emax) in data set [2] was determined as 91%.

`CN1CCCN(c2ccc(/C=C/c3cc(/C=C/c4cccn4C)[nH]n3)cc2)CC1` [Example 28-2, 1-methyl-4-[4-[(E)-2-[5-[(E)-2-(1-methylpyrrol-2-yl)vinyl]-1H-pyrazol-3-yl]vinyl]phenyl]-1,4-diazepane]: the Emax in data set [2] was determined as 93%.

Turning to `Cc1cc(OCc2ccccn2)ccc1/C=C/c1cc(/C=C/c2cccn2C)[nH]n1` [Example 32-5, 2-[[3-methyl-4-[(E)-2-[5-[(E)-2-(1-methylpyrrol-2-yl)vinyl]-1H-pyrazol-3-yl]vinyl]phenoxy]methyl]pyridine], in data set [2], the concentration for half-maximal inhibition (IC50) was found to be 640 nM and the maximum response (Emax) was determined as 90%.

As for `COc1cc(OCc2ccccn2)ccc1/C=C/c1cc(/C=C/c2ccnn2C)[nH]n1` [Example 42-2, 2-[[3-methoxy-4-[(E)-2-[5-[(E)-2-(2-methylpyrazol-3-yl)vinyl]-1H-pyrazol-3-yl]vinyl]phenoxy]methyl]pyridine], the IC50 in data set [2] was 830 nM.

As to `CN1CCCN(c2ccc(/C=C/c3cc(/C=C/c4ccc5ccn(C)c5c4)[nH]n3)cc2)CC1` [Example 43-2, 1-methyl-6-[(E)-2-[3-[(E)-2-[4-(4-methyl-1,4-diazepan-1-yl)phenyl]vinyl]-1H-pyrazol-5-yl]vinyl]indole], in data set [2], the maximum response (Emax) is 92%.

As to `COc1cc(OCCc2ccccn2)ccc1/C=C/c1cc(/C=C/c2ccc3ccn(C)c3c2)[nH]n1` [Example 44-2, 6-[(E)-2-[3-[(E)-2-[2-methoxy-4-[2-(2-pyridyl)ethoxy]phenyl]vinyl]-1H-pyrazol-5-yl]vinyl]-1-methylindole], the “AUC0-9 h in brain” value in data set [1] is listed as 869 ng · hr/g-tissue.

With `C(=C\c1cc(/C=C/c2ccc3cc[nH]c3c2)[nH]n1)/c1cccc(OCCN2CCOCC2)c1` [Example 53-2, 4-[2-[3-[(E)-2-[5-[(E)-2-(1H-indol-6-yl)vinyl]-1H-pyrazol-3-yl]vinyl]phenoxy]ethyl]morpholine], the IC50 in data set [2] is 840 nM.

For orientation: IC50 means the point on the concentration scale where inhibition reaches its midpoint. As usually defined, the Emax is the greatest response seen or fitted, relative to the assay's reference.
